pIC50: −log10 of the molar value.
Columns and labels:
Format in all cases: biochemical
[1] = target: T1, KRAS G12D (Homo sapiens, UniProt P01116, G12D); test: HTRF KRAS-SOS1 interaction assay, KRAS G12D; conditions: binned ≤2 μM / >2 μM, read-out: Inhibition of KRAS G12D (IC50)
T1 construct: made in house; host or cells: E. coli, e.g. BL21 (DE3)
Summary of the method: (§1)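 GST-tagged KRAS (WT or mutant) with anti-GST-Eu donor, mixed with His-hSOS1 and anti-6His-XL665 acceptor. Buffer ~5 mM HEPES pH 7.4, ~150 mM NaCl, ~1 mM DTT, 0.05% BSA, 0.0025% Igepal; incubated about 10 min or longer. HTRF 665/620 ratio, compounds in duplicate up to 10 μM, IC50 derived.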

[2] = target: T2, KRAS WT (Homo sapiens, UniProt P01116); test: HTRF KRAS-SOS1 interaction assay, wildtype KRAS; conditions: binned ≤2 μM / >2 μM, read-out: Inhibition of KRAS WT (IC50)
T2 construct: made in house; host or cells: E. coli, e.g. BL21 (DE3)
Summary of the method: as §1

[3] = target: T3, KRAS G12V (Homo sapiens, UniProt P01116, G12V); test: HTRF KRAS-SOS1 interaction assay, KRAS G12V; conditions: binned ≤2 μM / >2 μM, read-out: Inhibition of KRAS G12V (IC50)
T3 construct: made in house; host or cells: E. coli, e.g. BL21 (DE3)
Summary of the method: as §1

[4] = target: T4, KRAS G12S (Homo sapiens, UniProt P01116, G12S); test: HTRF KRAS-SOS1 interaction assay, KRAS G12S; conditions: binned ≤2 μM / >2 μM, read-out: Inhibition of KRAS G12S (IC50)
T4 construct: made in house; host or cells: E. coli, e.g. BL21 (DE3)
Summary of the method: as §1

T1 sequence (P01116 1-188 isoform P01116-2 G12D): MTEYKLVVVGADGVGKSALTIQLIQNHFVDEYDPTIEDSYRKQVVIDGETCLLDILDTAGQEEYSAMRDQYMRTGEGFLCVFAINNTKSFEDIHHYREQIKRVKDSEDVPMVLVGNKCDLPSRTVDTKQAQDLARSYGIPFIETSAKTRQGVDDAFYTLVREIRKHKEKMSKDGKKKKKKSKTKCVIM
T3 sequence (P01116 1-188 isoform P01116-2 G12V): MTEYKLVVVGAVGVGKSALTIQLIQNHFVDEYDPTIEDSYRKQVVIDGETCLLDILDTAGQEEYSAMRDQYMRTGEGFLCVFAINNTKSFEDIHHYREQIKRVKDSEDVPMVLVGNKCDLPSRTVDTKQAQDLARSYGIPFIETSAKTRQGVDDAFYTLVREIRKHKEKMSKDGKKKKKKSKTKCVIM
T2 sequence (P01116 1-188 isoform P01116-2): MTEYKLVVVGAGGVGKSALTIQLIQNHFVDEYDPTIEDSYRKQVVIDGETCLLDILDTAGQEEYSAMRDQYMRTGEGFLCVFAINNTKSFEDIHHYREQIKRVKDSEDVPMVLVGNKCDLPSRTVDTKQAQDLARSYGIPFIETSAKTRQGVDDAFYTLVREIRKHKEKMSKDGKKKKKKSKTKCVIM
T4 sequence (P01116 1-188 isoform P01116-2 G12S): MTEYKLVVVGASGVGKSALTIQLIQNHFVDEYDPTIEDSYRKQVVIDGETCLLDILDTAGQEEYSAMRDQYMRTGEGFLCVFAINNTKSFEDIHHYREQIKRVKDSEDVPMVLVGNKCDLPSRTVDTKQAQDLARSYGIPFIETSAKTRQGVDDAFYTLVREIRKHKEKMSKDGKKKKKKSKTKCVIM

Row | SMILES | pIC50 [1] | pIC50 [2] | pIC50 [3] | pIC50 [4]
1 | C=C1CN2CCC[C@@]2(COc2nc3c4c(c(C(F)(F)F)c(-c5ccc(F)c6sc(N)c(C#N)c56)c(F)c4n2)OCCN3[C@H](C)c2cc(Cl)cnc2N)C1 [Compound 690, 2-amino-4-(4-((R)-1-(2-amino-5-chloropyridin-3-yl)ethyl)-10-fluoro-2-(((S)-2-methylenetetrahydro-1H-pyrrolizin-7a(5H)-yl)methoxy)-8-(trifluoromethyl)-5,6-dihydro-4H-[1,4]oxazepino[5,6,7-de]quinazolin-9-yl)-7-fluorobenzo[b]thiophene-3-carbonitrile] | ≥ 5.70 | ≥ 5.70 | ≥ 5.70 | ≥ 5.70
2 | C[C@H](c1cccnc1N)N1CCOc2c(Cl)c(-c3ccc(F)c4sc(N)c(C#N)c34)c(F)c3nc(OC[C@@H]4CC(F)(F)CN4C)nc1c23 (single isomer, unassigned) [Compound 741] | ≥ 5.70 | ≥ 5.70 | ≥ 5.70 | ≥ 5.70
3 | Cc1ccc([C@@H](C)N2CCOc3c(Cl)c(-c4ccc(F)c5sc(N)c(C#N)c45)c(F)c4nc(OC[C@@]56CCCN5C[C@H](F)C6)nc2c34)c(N)n1 [Compound 736, 2-amino-4-(4-((R)-1-(2-amino-6-methylpyridin-3-yl)ethyl)-8-chloro-10-fluoro-2-(((2R,7aS)-2-fluorotetrahydro-1H-pyrrolizin-7a(5H)-yl)methoxy)-5,6-dihydro-4H-[1,4]oxazepino[5,6,7-de]quinazolin-9-yl)-7-fluorobenzo[b]thiophene-3-carbonitrile] | ≥ 5.70 | ≥ 5.70 | ≥ 5.70 | ≥ 5.70
4 | C[C@H](c1ccc(F)nc1N)N1CCOc2c(C(F)(F)F)c(-c3ccc(F)c4sc(N)c(C#N)c34)c(F)c3nc(OCC4(CN5CCC(F)CC5)CC4)nc1c23 [Compound 604, 2-amino-4-(4-((R)-1-(2-amino-6-fluoropyridin-3-yl)ethyl)-10-fluoro-2-((1-((4-fluoropiperidin-1-yl)methyl)cyclopropyl)methoxy)-8-(trifluoromethyl)-5,6-dihydro-4H-[1,4]oxazepino[5,6,7-de]quinazolin-9-yl)-7-fluorobenzo[b]thiophene-3-carbonitrile] | ≥ 5.70 | ≥ 5.70 | ≥ 5.70 | ≥ 5.70
5 | CC(=O)c1c(F)ccc2cc(O)cc(-c3nc4c5c(nc(OC[C@@H]6CCCN6C)nc5c3F)N(C(C)c3cccnc3N)CCO4)c12 (mixture of isomers) [Compound 801, 1-(8-(10-(1-(2-aminopyridin-3-yl)ethyl)-4-fluoro-2-(((S)-1-methylpyrrolidin-2-yl)methoxy)-9,10-dihydro-8H-7-oxa-1,3,6,10-tetraazacyclohepta[de]naphthalen-5-yl)-2-fluoro-6-hydroxynaphthalen-1-yl)ethan-1-one] | ≥ 5.70 | ≥ 5.70 | ≥ 5.70 | ≥ 5.70
6 | C[C@H](c1cccnc1N)N1CCOc2c(Cl)c(-c3ccc(F)c4sc(N)c(C#N)c34)c(F)c3nc(OC[C@@H]4CCCN4C)nc1c23 (single isomer, unassigned) [Compound 641] | ≥ 5.70 | ≥ 5.70 | ≥ 5.70 | ≥ 5.70
7 | CO[C@H]1CCN(C)[C@@H]1[C@H](C)Oc1nc2c3c(c(C(F)(F)F)c(-c4ccc(F)c5sc(N)c(C#N)c45)c(F)c3n1)OCCN2[C@H](C)c1cc(F)cnc1N [Compound 630, 2-amino-4-(4-((R)-1-(2-amino-5-fluoropyridin-3-yl)ethyl)-10-fluoro-2-((S)-1-((2R,3S)-3-methoxy-1-methylpyrrolidin-2-yl)ethoxy)-8-(trifluoromethyl)-5,6-dihydro-4H-[1,4]oxazepino[5,6,7-de]quinazolin-9-yl)-7-fluorobenzo[b]thiophene-3-carbonitrile] | ≥ 5.70 | ≥ 5.70 | ≥ 5.70 | ≥ 5.70
8 | CC(c1cccnc1N)N1c2nc(OC[C@@]34CCCN3C[C@H](F)C4)nc3c(F)c(-c4ccc(F)c5sc(N)c(C#N)c45)c(Cl)c(c23)OC[C@@H]1C(F)F (mixture of isomers) [Compound 790, 2-amino-4-((5R)-4-(1-(2-aminopyridin-3-yl)ethyl)-8-chloro-5-(difluoromethyl)-10-fluoro-2-(((2R,7aS)-2-fluorotetrahydro-1H-pyrrolizin-7a(5H)-yl)methoxy)-5,6-dihydro-4H-[1,4]oxazepino[5,6,7-de]quinazolin-9-yl)-7-fluorobenzo[b]thiophene-3-carbonitrile] | ≥ 5.70 | ≥ 5.70 | ≥ 5.70 | ≥ 5.70

Next, values leading:

Row | pIC50 [1] | pIC50 [2] | pIC50 [3] | pIC50 [4] | SMILES
9 | ≥ 5.70 | ≥ 5.70 | ≥ 5.70 | ≥ 5.70 | C=CC(F)(F)[C@H](c1cccnc1N)N1CCOc2c(Cl)c(-c3ccc(F)c4sc(N)c(C#N)c34)c(F)c3nc(OC[C@@]45CCCN4C[C@H](F)C5)nc1c23 [Compound 639, 2-amino-4-(4-((S)-1-(2-aminopyridin-3-yl)-2,2-difluorobut-3-en-1-yl)-8-chloro-10-fluoro-2-(((2R,7aS)-2-fluorotetrahydro-1H-pyrrolizin-7a(5H)-yl)methoxy)-5,6-dihydro-4H-[1,4]oxazepino[5,6,7-de]quinazolin-9-yl)-7-fluorobenzo[b]thiophene-3-carbonitrile]
10 | ≥ 5.70 | ≥ 5.70 | ≥ 5.70 | ≥ 5.70 | N#Cc1c(N)sc2c(F)ccc(-c3c(C(F)(F)F)c4c5c(nc(OC[C@@]67CCCN6C[C@H](F)C7)nc5c3F)N([C@H](CC3CCOC3)c3cccnc3N)CCO4)c12 (single isomer, unassigned) [Compound 692]
11 | < 5.70 | ≥ 5.70 | ≥ 5.70 | ≥ 5.70 | C[C@@H]1CN(CC2(COc3nc4c5c(c(C(F)(F)F)c(-c6ccc(F)c7sc(N)c(C#N)c67)c(F)c5n3)OCCN4[C@H](C)c3cccnc3N)CC2)C[C@H](C)O1 [Compound 710, 2-amino-4-(4-((R)-1-(2-aminopyridin-3-yl)ethyl)-2-((1-(((2S,6R)-2,6-dimethylmorpholino)methyl)cyclopropyl)methoxy)-10-fluoro-8-(trifluoromethyl)-5,6-dihydro-4H-[1,4]oxazepino[5,6,7-de]quinazolin-9-yl)-7-fluorobenzo[b]thiophene-3-carbonitrile]
12 | ≥ 5.70 | ≥ 5.70 | ≥ 5.70 | ≥ 5.70 | CN(C)C(=O)C[C@H](c1cccnc1N)N1CCOc2c(C(F)(F)F)c(-c3ccc(F)c4sc(N)c(C#N)c34)c(F)c3nc(OC[C@@]45CCCN4C[C@H](F)C5)nc1c23 [Compound 810, (3R)-3-(9-(2-amino-3-cyano-7-fluorobenzo[b]thiophen-4-yl)-10-fluoro-2-(((2R,7aS)-2-fluorotetrahydro-1H-pyrrolizin-7a(5H)-yl)methoxy)-8-(trifluoromethyl)-5,6-dihydro-4H-[1,4]oxazepino[5,6,7-de]quinazolin-4-yl)-3-(2-aminopyridin-3-yl)-N,N-dimethylpropanamide]
13 | ≥ 5.70 | ≥ 5.70 | ≥ 5.70 | ≥ 5.70 | C[C@H](c1nccnc1N)N1CCOc2c(C(F)(F)F)c(-c3ccc(F)c4sc(N)c(C#N)c34)c(F)c3nc(OC[C@@]45CCCN4C[C@@]4(CC4(F)F)C5)nc1c23 [Compound 773, 2-amino-4-(4-((R)-1-(3-aminopyrazin-2-yl)ethyl)-2-(((1S,7a′S)-2,2-difluorodihydro-1′H,3′H-spiro[cyclopropane-1,2′-pyrrolizin]-7a′(5′H)-yl)methoxy)-10-fluoro-8-(trifluoromethyl)-5,6-dihydro-4H-[1,4]oxazepino[5,6,7-de]quinazolin-9-yl)-7-fluorobenzo[b]thiophene-3-carbonitrile]
14 | ≥ 5.70 | ≥ 5.70 | ≥ 5.70 | ≥ 5.70 | N#Cc1c(N)sc2c(F)ccc(-c3c(C(F)(F)F)c4c5c(nc(OC[C@@]67CCCN6C[C@@]6(CC6(F)F)C7)nc5c3F)N([C@H](CCC(F)(F)F)c3cccnc3N)CCO4)c12 [Compound 883, 2-amino-4-(4-((R)-1-(2-aminopyridin-3-yl)-4,4,4-trifluorobutyl)-2-(((1S,7a′S)-2,2-difluorodihydro-1′H,3′H-spiro[cyclopropane-1,2′-pyrrolizin]-7a′(5′H)-yl)methoxy)-10-fluoro-8-(trifluoromethyl)-5,6-dihydro-4H-[1,4]oxazepino[5,6,7-de]quinazolin-9-yl)-7-fluorobenzo[b]thiophene-3-carbonitrile]
15 | ≥ 5.70 | ≥ 5.70 | ≥ 5.70 | ≥ 5.70 | CON=C1CN2CCC[C@@]2(COc2nc3c4c(c(C(F)(F)F)c(-c5ccc(F)c6sc(N)c(C#N)c56)c(F)c4n2)OCCN3[C@H](C)c2cccnc2N)C1 (mixture of isomers) [Compound 622, 2-amino-4 ((S)-4-((R)-1-(2-aminopyridin-3-yl)ethyl)-10-fluoro-2-(((S)-2-(methoxyimino)tetrahydro-1H-pyrrolizin-7a (5H)-yl)methoxy)-8-(trifluoromethyl)-5,6-dihydro-4H-[1,4]oxazepino[5,6,7-de]quinazolin-9-yl)-7-fluorobenzo[b]thiophene-3-carbonitrile]

— patent US12668600B2 (Kumquat Biosciences Inc., priority 2023, dated 2026)
